Laboratory results reported in patent EP0351214A1, “Anti-inflammatory aryl derivatives” (THE WELLCOME FOUNDATION LIMITED, priority 1988, dated 1990).

Assays:
5-lipoxygenase (5-LO) = target: T1, 5-lipoxygenase (5-LO) (Homo sapiens, UniProt P09917); assay: In vitro inhibition of 5-lipoxygenase (5-LO) in homogenised leukocytes, radioimmunoassay for leucotriene B4; type: biochemical; conditions: homogenised leukocytes from blood of normal aspirin-free volunteers; 5µM arachidonic acid, 37°C, 5 minutes; leucotriene B₄ by radioimmunoassay; read-out: IC₅₀(µM) activity LO
T1 construct: The leukocytes were homogenised and 5µM arachidonic acid added; from tissue; host or cells: homogenised leukocytes from blood of volunteers
T1 sequence (P09917 1-674): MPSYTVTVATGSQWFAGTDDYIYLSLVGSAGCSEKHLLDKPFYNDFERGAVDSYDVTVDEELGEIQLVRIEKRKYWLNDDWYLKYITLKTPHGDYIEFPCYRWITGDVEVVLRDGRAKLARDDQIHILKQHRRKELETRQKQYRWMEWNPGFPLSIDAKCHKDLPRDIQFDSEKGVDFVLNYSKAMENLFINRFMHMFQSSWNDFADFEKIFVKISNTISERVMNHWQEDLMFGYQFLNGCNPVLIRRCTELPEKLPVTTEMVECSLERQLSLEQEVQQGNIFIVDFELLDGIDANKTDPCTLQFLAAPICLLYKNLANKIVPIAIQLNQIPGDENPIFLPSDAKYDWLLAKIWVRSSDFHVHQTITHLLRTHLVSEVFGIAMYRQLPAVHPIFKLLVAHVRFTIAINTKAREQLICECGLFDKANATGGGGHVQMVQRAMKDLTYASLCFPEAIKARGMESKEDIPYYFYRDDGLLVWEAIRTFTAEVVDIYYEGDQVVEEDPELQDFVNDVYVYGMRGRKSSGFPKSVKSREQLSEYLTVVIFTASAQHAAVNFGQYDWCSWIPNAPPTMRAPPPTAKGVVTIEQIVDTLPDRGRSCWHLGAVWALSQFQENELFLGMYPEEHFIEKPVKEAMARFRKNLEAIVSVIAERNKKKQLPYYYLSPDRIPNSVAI
Procedure: (§1) In vitro inhibition of 5-lipoxygenase (5-LO) and cyclo-oxygenase (CO)
(§2) Blood from normal aspirin-free volunteers was centrifuged to separate leukocytes from red cells and platelets. The leukocytes were homogenised and 5µM arachidonic acid added, followed by incubation at 37 °C for 5 minutes. The reaction was stopped by boiling and radioimmunoassays conducted for leucotriene B₄ and thromboxane B₂, products derived from 5-lipoxygenase and cyclo-oxygenase respectively. Results were calculated as IC₅₀(µM) activity against each enzyme.

cyclo-oxygenase (CO) = target: T2, cyclo-oxygenase (CO) (Homo sapiens, UniProt P23219); assay: In vitro inhibition of cyclo-oxygenase (CO) in homogenised leukocytes, radioimmunoassay for thromboxane B2; type: biochemical; conditions: homogenised leukocytes from blood of normal aspirin-free volunteers; 5µM arachidonic acid, 37°C, 5 minutes; thromboxane B₂ by radioimmunoassay; read-out: IC₅₀(µM) activity CO
T2 construct: The leukocytes were homogenised and 5µM arachidonic acid added; from tissue; host or cells: homogenised leukocytes from blood of volunteers
Procedure: as §1, §2

T2 sequence (P23219 24-599): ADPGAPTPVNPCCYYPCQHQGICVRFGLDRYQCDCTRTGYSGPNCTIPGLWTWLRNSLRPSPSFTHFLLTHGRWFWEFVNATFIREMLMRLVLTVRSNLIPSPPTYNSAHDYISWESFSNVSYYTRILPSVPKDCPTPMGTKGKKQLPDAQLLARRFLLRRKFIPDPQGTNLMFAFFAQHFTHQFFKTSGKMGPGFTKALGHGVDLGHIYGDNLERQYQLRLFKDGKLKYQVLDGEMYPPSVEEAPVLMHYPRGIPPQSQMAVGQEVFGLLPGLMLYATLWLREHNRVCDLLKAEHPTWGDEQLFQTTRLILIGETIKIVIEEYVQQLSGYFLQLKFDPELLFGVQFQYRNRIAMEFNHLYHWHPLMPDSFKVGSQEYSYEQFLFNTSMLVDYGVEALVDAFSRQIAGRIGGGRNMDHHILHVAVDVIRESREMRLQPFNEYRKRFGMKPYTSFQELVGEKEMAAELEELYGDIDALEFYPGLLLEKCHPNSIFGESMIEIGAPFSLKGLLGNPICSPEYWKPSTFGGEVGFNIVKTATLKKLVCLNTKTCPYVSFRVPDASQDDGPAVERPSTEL

`CC(=O)N(O)[C@@H](C)/C=C/c1cccc(Oc2ccc(F)cc2)c1` [Synthetic Example, (E)-N-{1(S)-methyl-3-[3-(4-fluorophenoxy)phenyl]prop-2-en-1-yl}acetohydroxamic acid] was tested, and the IC50 (5-lipoxygenase (5-LO)) was 0.15 µM and the IC50 (cyclo-oxygenase (CO)) was 3 µM.
